Reference: patent US9447020B2, “Polyunsaturated fatty acid monoglycerides, derivatives, and uses thereof” (SCF PHARMA INC., priority 2013, dated 2016)
pIC50: −log10 of the molar value.

What was measured:
[1] = test system: A549 human cancer cell line; assay: In vivo tumor xenograft experiment: tumor tissue fatty acid composition after oral MAG-DHA; settings: A549 xenografts in female CD-1 nude mice; per os 618 mg/kg daily for 48 days; tumors harvested 24 hours after treatment completion; HPLC-MS
Method: Female CD-1 nude mice were obtained from Charles River Laboratories (Montreal, Qc, Canada). All studies involving mice were approved by the institutional animal care committee (Protocol: #237-10). Human A549 xenografts were established in 4-week-old female CD-1 nude mice. Mice were inoculated with 0.2 ml of a solution of 1×10^6 A549 cells subcutaneously on the right flank. Mice were randomly assigned into 3 groups, control (untreated), corn oil and MAG-DHA (CA2672513, CA2677670) treated (n=6 per group). Corn oil and MAG-DHA were administrated per os (618 mg/kg) daily following cell inoculation. Treatments were continued for 48 days. Mice were sacrificed when tumor volume reached ≈1.5 cm3 in the control group. Tumor tissues were harvested 24 hours after treatment completion. Tumor tissue fatty acids compositions were measured using a high-performance liquid chromatography (HPLC)-MS method [Gagne S and al. J Lipid Res 2007 January; 48(1):252-9] modified to detect complete fatty acid composition. Data were acquired in SIM mode corresponding to the following fatty acids: C20:4 (AA), C20:5 (EPA), C22:5 (DPA), C22:6 (DHA). The linear calibration curves were obtained in the concentration range of 2 to 500 μg/ml
FIG. 1 represents the fatty acids compositions of tumors after MAG-DHA oral supplementation.

[2] = test system: SW620 cells; assay: Effect on growth of SW620 cells (cell counting, trypan blue); format: cell-based, Human; settings: for pIC50: SW620 colorectal carcinoma cells, 48 h treatment, 0.2% FBS, cumulative concentration response curve
Method: Human SW620 colorectal carcinoma cells were obtained from the American Type Culture Collection (ATCC) and maintained in Leitbovitz's L-15 medium containing 10% FBS, 10 mM HEPES, 2.2 g/L Na2C03 and 10 units/ml penicillin, 100 μg/ml streptomycin. Cells were grown in a 5% CO2 incubator at 37° C. A predefined number of SW620 cells were allowed to grow in 24 wells plates (1×10^4 cells/well) for 3 days until cells reached 80% confluence. Then, cells were starved in Leitbovitz's medium without FBS for 8 h. Then, the culture medium was replaced with Leitbovitz+0.2% FBS and different concentrations of MAG-DHA, MAG-EPA or MAG-DPA (0.1, 0.3, 1, 3, 10, 30 and 100 μM) were added to each well. Culture media were changed every 24 h and cells were treated for 48 h. After 48, the medium was removed from the culture plates and 0.05% trypsing EDTA was used to detach the cells from the surface of the culture plates. The harvested cells were counted, both the viable and dead ones, using a Countess Automated Cell Counter (Invitrogen Inc.). Briefly, for each condition an appropriated cell dilution was prepared from the harvested cells and an aliquot was mixed with an equal volume of 0.4% trypan blue, and 10 μl was transferred into each side of a Countess™ chamber slide. All concentrations tested were performed in triplicata and were representative of 5 independent experiment.
FIG. 2 represents an in vitro cumulative concentration response curves (CCRC) of MAG-DHA, MAG-EPA and MAG-DPA ([…]) on SW620 cell growth.

Row | Structure (SMILES) | fatty acids compositions of tumors (EPA, DHA, DPA) compared to control and corn oil groups [1] | pIC50 [2] | times more active than MAG-EPA or MAG-DHA ([2]; SW620 cell growth, comparison of IC50 values) | pIC50 ([2]; Homo sapiens, SW-620, 48 h)
1 | CC/C=C\C/C=C\C/C=C\C/C=C\C/C=C\CCCCCC(=O)OCC(O)CO (stereo not drawn) [MAG-DHA, sn1(3)-all-cis-4,7,10,13,16,19-docosahexaenoylglyceride] | significant increase in EPA, DHA and DPA | 5.54 |  | 
2 | CC/C=C\C/C=C\C/C=C\C/C=C\C/C=C\CCCCCC(=O)OCC(O)CO (stereo not drawn) [MAG-DPA, sn1(3)-all-cis-7,10,13,16,19-docosapentaenoylglyceride] |  | 6.43 | 10 times | 
3 | CC/C=C\C/C=C\C/C=C\C/C=C\C/C=C\CCCC(=O)OCC(O)CO (stereo not drawn) [MAG-EPA, sn1(3)-all-cis-5,8,11,14,17-eicosapentaenoylglyceride] |  |  |  | 5.49
